Data set [1] is described as follows: Chlorhexidine gluconate remaining after gamma irradiation, measured by HPLC. Format: physicochemical. The note with it: for Chlorhexidine gluconate after irradiation, % / Preservation, %: initial CHD 0.075 wt %. The procedure:
An aqueous solution of silver nitrate salt (as the source of silver) was prepared so that the final concentration of silver in the solution was 60 ppm. A 20 wt % aqueous solution of chlorhexidine gluconate (CHD) was added to make the resulting concentration of 0.05 wt %. Finally, isopropanol was added to achieve the concentration of 4 wt % in the resulting solution. The sample was a transparent colorless liquid. Thermo Scientific Evolution 220 Spectrophotometer was used to monitor the absorbance spectra of the sample, which is shown in FIG. 1 as the dashed line. The 30 ml sample solution was then subjected to irradiation by gamma rays at 7 kGy. The resulting solution was a transparent brownish liquid showing a clear peak of absorption at the wavelength 412.7 nm (solid line in FIG. 1), which corresponds to the presence of silver nanoparticles. The sample of the irradiated solution was presented for imaging to Transmission Electron Microscope (JEOL JEM 2100F) and an example of the image is shown in FIG. 2, which confirms formation of silver nanoparticles in the irradiated solution. The nanoparticles have quasi-spherical form and a visible conjugated layer around their surface. […]
Two identical samples were prepared as described in Example 1, each of them being colorless transparent aqueous solutions containing 60 ppm of silver in the form of silver nitrate, 0.5 wt % of polyvinyl alcohol, 4 wt % of isopropanol and 0.05 wt % of chlorhexidine gluconate. The samples were subjected to different doses of gamma irradiation—the first sample to 7 kGy and the second to 3 kGy. After irradiation the color of the samples changed to the transparent brown.
To evaluate any influence of the amount and the nature of the stabilizing agent, three different samples were prepared as described in Example 1. Each of them contained 30 ppm of silver in the form of silver nitrate and 0.05 wt % of chlorhexidine gluconate in an aqueous solution. The first sample additionally contained 0.5 wt % of polyvinyl alcohol (PVA) and 10 wt % of isopropanol, the second—2 wt % of polyvinyl alcohol and 10 wt % of isopropanol and the third sample additionally contained 1 wt % of polyvinylpyrrolidone (PVP) and 4 wt % of isopropanol. All three samples represented clear colorless liquids before irradiation. The irradiated at 10 kGy samples changed their color to the transparent brown color of different intensities. The concentration of chlorhexidine gluconate was measured using HPLC and determined as 0.015 wt % in the first and the second sample and 0.016 wt % in the third sample. The UV-vis spectra of all three samples show formation of silver nanoparticles, with the only difference that in the sample which contained PVP the nanoparticles are larger than in those which contained PVA (FIG. 5; the “shoulder” of the small dashed line indicates presence of nanoparticles larger than 100 nm).
To evaluate any difference caused by the initial amount of chlorhexidine gluconate, two samples were prepared as in Example 1, but one of them contained 0.05 wt % of chlorhexidine gluconate and another sample contained 0.075 wt % of chlorhexidine gluconate before irradiation. Both samples were irradiated at 7 kGy, by the action of which the nanoparticles of silver were formed in both samples.
To evaluate the influence of the amount of silver present in the form of a silver salt as a precursor for nanoparticles formation, three different samples were prepared as described in Example 1. Each of them contained 0.075 wt % of chlorhexidine gluconate, 0.5 wt % of polyvinyl alcohol and 4 wt % of isopropanol in an aqueous solution. Silver nitrate was added to each of the samples so that the concentration of silver in the samples was 15 ppm, 30 ppm and 60 ppm. All the samples were transparent colorless solutions. They were subjected to gamma irradiation at 7 kGy and the concentration of chlorhexidine gluconate was measured consequently using HPLC. […]

Assay in data set [2]: as above
Format: physicochemical.

The mark [3] stands for this setting: Example 1: Ag 60 ppm (silver nitrate), initial CHD 0.05 wt %, isopropanol 4 wt %, gamma 7 kGy.
Where [4] appears, read: Example 2: Ag 60 ppm, PVA 0.5 wt %, isopropanol 4 wt %, initial CHD 0.05 wt %, gamma 7 kGy.
Setting [5] is: Example 4, first sample: initial CHD 0.05 wt %, silver nitrate, gamma 7 kGy.
Setting [6] is: Example 4, second sample: initial CHD 0.075 wt %, silver nitrate, gamma 7 kGy.
[7] abbreviates: Example 5: Ag 15 ppm, PVA 0.5 wt %, isopropanol 4 wt %, gamma 7 kGy.
The mark [8] stands for this setting: Example 5: Ag 30 ppm, PVA 0.5 wt %, isopropanol 4 wt %, gamma 7 kGy.
Setting [9] is: Example 5: Ag 60 ppm, PVA 0.5 wt %, isopropanol 4 wt %, gamma 7 kGy.
[10] abbreviates: Example 9: Au 30 ppm (chloroauric acid), isopropanol 4 wt %, initial CHD 0.05 wt %, gamma 3 kGy.

These results are taken from US20220193255A1, “CHLORHEXIDINE SYSTEMS AND METHODS FOR OBTAINING SAME” (priority 2019, published 2022).

For the molecule `[H]/N=C(\N/C(=N/[H])NCCCCCCNC(=N)NC(=N)Nc1ccc(Cl)cc1)Nc1ccc(Cl)cc1` [chlorhexidine gluconate], the “concentration of chlorhexidine gluconate in the irradiated solution” value in data set [1] (setting [3]) is reported as 0.0295 wt %. For the same molecule, the “rate of preservation compared to the initial level before irradiation” value in data set [1] (setting [3]) was found to be 59%. Further, the rate of preservation in data set [1] (Example 2: Ag 60 ppm, PVA 0.5 wt %, isopropanol 4 wt %, initial CHD 0.05 wt %, gamma 3 kGy) amounted to 79%; in data set [1] (setting [4]) it was 58.8%. In addition, the “chlorhexidine gluconate after irradiation” value in data set [1] (setting [4]) was 0.0294 wt %. Further, the “concentration of chlorhexidine gluconate after irradiation” value in data set [1] (Example 3, first sample: Ag 30 ppm, initial CHD 0.05 wt %, PVA 0.5 wt %, isopropanol 10 wt %, gamma 10 kGy) amounted to 0.015 wt %; in data set [1] (Example 3, second sample: Ag 30 ppm, initial CHD 0.05 wt %, PVA 2 wt %, isopropanol 10 wt %, gamma 10 kGy), 0.015 wt %; in data set [1] (Example 3, third sample: Ag 30 ppm, initial CHD 0.05 wt %, PVP 1 wt %, isopropanol 4 wt %, gamma 10 kGy) it was 0.016 wt %; in data set [1] (setting [5]), 0.0294 wt %; in data set [1] (setting [6]), 0.052 wt %. The figures for the preservation rate in data set [1] (setting [5]) and in data set [1] (setting [6]) were 58.8% and 69.3%, respectively. For the same molecule, the “Chlorhexidine gluconate after irradiation, %” value in data set [1] (setting [7]) came out at 0.043%; in data set [1] (setting [8]) it was 0.049%; in data set [1] (setting [9]), 0.052%. Moreover, the “Preservation, %” value in data set [1] (setting [7]) worked out at 57.33%; in data set [1] (setting [8]) it was 65.33%; in data set [1] (setting [9]), 69.33%. The molecule also registered a preservation in data set [1] (setting [10]) of 51.6%. Further, the “presence of chlorhexidine in the irradiated sample” value in data set [2] (Example 8 (comparative): gold nanoparticles made chemically with ascorbic acid, CHD 0.05 wt % added afterwards, gamma 7 kGy) is recorded as “not detected”. Further, the “chlorhexidine gluconate detected after irradiation” value in data set [2] (setting [10]) came out at 0.0258 wt %.
